ChEMBL document CHEMBL3351707, “Discovery and SAR of muscarinic receptor subtype 1 (M1) allosteric activators from a molecular libraries high throughput screen. Part 1: 2,5-dibenzyl-2H-pyrazolo[4,3-c]quinolin-3(5H)-ones as positive allosteric modulators” (Bioorg Med Chem Lett, 2015)
Calls of active or inactive are those of the source. The calls are words filed in the database; no cut-off is given here.

Tests used:
Type in all cases: functional, cell-based
[1] = molecular target: T1, Muscarinic acetylcholine receptor M1 (Homo sapiens, UniProt P11229); assay: (§1) Positive allosteric modulator activity at human muscarinic receptor subtype 1 expressed in CHO-K1 cells by calcium mobilization assay
T1 sequence (P11229 whole entry): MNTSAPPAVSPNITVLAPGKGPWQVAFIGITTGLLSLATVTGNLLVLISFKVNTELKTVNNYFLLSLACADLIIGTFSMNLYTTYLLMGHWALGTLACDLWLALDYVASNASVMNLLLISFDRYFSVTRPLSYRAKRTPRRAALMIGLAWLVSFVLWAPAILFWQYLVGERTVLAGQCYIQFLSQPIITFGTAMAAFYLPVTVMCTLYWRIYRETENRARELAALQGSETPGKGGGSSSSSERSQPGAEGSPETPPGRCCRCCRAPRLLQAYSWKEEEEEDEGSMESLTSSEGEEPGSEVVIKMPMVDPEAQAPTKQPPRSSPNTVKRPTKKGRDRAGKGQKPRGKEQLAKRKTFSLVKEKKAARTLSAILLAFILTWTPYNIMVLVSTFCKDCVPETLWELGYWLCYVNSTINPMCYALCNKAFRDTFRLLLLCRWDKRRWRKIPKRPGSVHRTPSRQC

[2] = molecular target: T2, Muscarinic acetylcholine receptor M1 (Homo sapiens) (UniProt P11229); assay: as §1
T2 sequence (whole entry): T1 sequence (P11229 whole entry)

[3] = molecular target: T2, Muscarinic acetylcholine receptor M1 (Homo sapiens); assay: Positive allosteric modulator activity at human muscarinic receptor subtype 1 expressed in CHO-K1 cells by calcium mobilization assay relative to acetylcholine
[4] = molecular target: T2, Muscarinic acetylcholine receptor M1 (Homo sapiens); assay: Positive allosteric modulator activity at human muscarinic receptor subtype 1 expressed in CHO-K1 cells at 30 uM by calcium mobilization assay relative to acetylcholine

SMILES	EC50 ([1]; cho-k1)	pEC50 [2]	Emax [3]	EC50 ([1]; read-out: EC50)	Emax [4]
Cc1cccc(Cn2cc3c(=O)n(Cc4ccc(C)cc4C)nc-3c3ccccc32)c1	Not Active	inactive	inactive		
O=c1c2cn(Cc3ccccc3)c3ccccc3c-2nn1Cc1ccccn1				> 10 µM	59%
O=c1c2cn(Cc3ccccc3)c3ccccc3c-2nn1Cc1cccc(F)c1	Not Active	inactive			
Cc1ccc(Cn2nc3c4ccccc4n(Cc4ccccc4)cc-3c2=O)cc1	Not Active	inactive			
Cc1ccc(Cn2cc3c(=O)n(Cc4ccc(C)cc4C)nc-3c3ccccc32)cc1	Not Active	inactive	inactive		
Cc1ccc(Cn2nc3c4ccccc4n(Cc4ccc(-n5cccn5)cc4)cc-3c2=O)c(C)c1			80%	1.15 µM	
O=c1c2cn(Cc3ccc(-n4cccn4)cc3)c3ccccc3c-2nn1Cc1ccccc1				> 10 µM	50%
Cc1ccc(Cn2nc3c4ccccc4n(Cc4ccncc4)cc-3c2=O)c(C)c1			82%	1.55 µM	
O=c1c2cn(Cc3ccccc3)c3ccccc3c-2nn1Cc1ccncc1				> 10 µM	54%
Cc1ccc(C)c(CN2C(=O)C(=O)c3ccccc32)c1	Not Active				
Cc1ccc(Cn2nc3c4ccccc4n(C)cc-3c2=O)c(C)c1	Not Active	inactive	inactive		
O=C1C(=O)N(Cc2ccc(-n3cccn3)cc2)c2ccccc21			61%		
COc1ccc(Cn2cc3c(=O)n(Cc4ccc(C)cc4C)nc-3c3ccccc32)cc1			39%	0.821 µM	
O=C1C(=O)N(Cc2ccccc2)c2ccccc21			34%		
Cc1ccc(C)c(Cn2nc3c4ccccc4[nH]cc-3c2=O)c1				> 30 µM	
Cc1ccccc1Cn1nc2c3ccccc3n(Cc3ccccc3)cc-2c1=O			47%	0.783 µM	
Cc1ccc(C)c(Cn2nc3c4ccccc4n(Cc4ccccc4)cc-3c2=O)c1			40%	0.473 µM	
O=c1c2cn(Cc3ccccc3)c3ccccc3c-2nn1Cc1ccccc1	Not Active	inactive			
Cc1ccc(Cn2nc3c4ccccc4n(Cc4ccccc4C)cc-3c2=O)c(C)c1	Not Active	inactive	inactive		
O=c1c2cn(Cc3ccccc3)c3ccccc3c-2nn1Cc1ccccc1F			36%	1.01 µM	
O=c1c2c[nH]c3ccccc3c-2nn1[C@@H]1CCCC[C@H]1O	Not Active	inactive			
O=c1c2cn(Cc3ccccc3)c3ccccc3c-2nn1Cc1cccnc1			65%	6.31 µM	
O=c1c2c[nH]c3ccccc3c-2nn1Cc1ccc(-n2cccn2)cc1	Not Active	inactive			
Cc1cccc(Cn2nc3c4ccccc4n(Cc4ccccc4)cc-3c2=O)c1	Not Active	inactive			
O=c1c2cn(Cc3ccccc3)c3ccccc3c-2nn1Cc1ccc(F)cc1	Not Active	inactive			
Cc1cc(NC(=O)CS(=O)(=O)c2cn(Cc3ccc(-c4cnn(C)c4)nc3)c3cc(F)cc(F)c23)no1				0.845 µM	

Results, then the molecule that gave them:

EC50 ([1]; cho-k1)	pEC50 [2]	Emax [3]	EC50 ([1]; read-out: EC50)	Emax [4]	SMILES
		89%	0.6 µM		Cn1cc(-c2ccc(Cn3cc4c(=O)[nH]nc-4c4ccccc43)c(F)c2)cn1
		88%	2.43 µM		Cn1nc2c3ccccc3n(Cc3ccc(-n4cccn4)cc3)cc-2c1=O
		75%	3.66 µM		Cc1ccc(Cn2nc3c4ccccc4n(Cc4cccnc4)cc-3c2=O)c(C)c1
Not Active	inactive	inactive			COc1ccc(Cn2cc3c(=O)n(Cc4ccc(C)cc4C)nc-3c3ccccc32)c(F)c1
		31%	1.42 µM		Cc1ccc(Cn2nc3c4ccccc4n(Cc4cccc(F)c4)cc-3c2=O)c(C)c1
		83%	3.79 µM		Cc1ccc(Cn2nc3c4ccccc4n(Cc4ccccn4)cc-3c2=O)c(C)c1
			> 10 µM	48%	Cn1nc2c3ccccc3n(Cc3ccccc3)cc-2c1=O
Not Active	inactive				Cn1cc(-c2ccc(Cn3nc4c5ccccc5[nH]cc-4c3=O)cc2)cn1
		83%	1.2 µM		O=c1[nH]nc2c3ccccc3n(Cc3ccc(-n4cccn4)cc3)cc1-2
		74%	1.94 µM		Cc1ccc(Cn2nc3c4ccccc4n(Cc4ccc(-c5cnn(C)c5)cc4F)cc-3c2=O)c(C)c1
		46%	0.656 µM		Cc1ccc(Cn2nc3c4ccccc4n(Cc4ccccc4F)cc-3c2=O)c(C)c1
		47%	2.02 µM		Cc1ccc(Cn2nc3c4ccccc4n(Cc4ccc(F)cc4)cc-3c2=O)c(C)c1
